Starred links: 1 amine or outer side, 2 acyl side, 3 side chain; linkers in the order of their positions; H or OH if unused. Non-standard residues stand in square brackets, D forms with d. Residues, ends and D or L forms follow the SMILES beside them. *: point of attachment. Acetyl(2-STrt) = O=C(CSC(c1ccccc1)(c1ccccc1)c1ccccc1)*; X1 = Oc1ccc(NC(=S)[*:2])cc1N[*:1]; Nle = CCCC[C@H](N)C(=O)O; Ahx = NCCCCCC(=O)O; βAla = NCCC(=O)O
Molecular target: T1, Gastrin/cholecystokinin type B receptor (Homo sapiens) (UniProt P32239)
T1 sequence (whole entry): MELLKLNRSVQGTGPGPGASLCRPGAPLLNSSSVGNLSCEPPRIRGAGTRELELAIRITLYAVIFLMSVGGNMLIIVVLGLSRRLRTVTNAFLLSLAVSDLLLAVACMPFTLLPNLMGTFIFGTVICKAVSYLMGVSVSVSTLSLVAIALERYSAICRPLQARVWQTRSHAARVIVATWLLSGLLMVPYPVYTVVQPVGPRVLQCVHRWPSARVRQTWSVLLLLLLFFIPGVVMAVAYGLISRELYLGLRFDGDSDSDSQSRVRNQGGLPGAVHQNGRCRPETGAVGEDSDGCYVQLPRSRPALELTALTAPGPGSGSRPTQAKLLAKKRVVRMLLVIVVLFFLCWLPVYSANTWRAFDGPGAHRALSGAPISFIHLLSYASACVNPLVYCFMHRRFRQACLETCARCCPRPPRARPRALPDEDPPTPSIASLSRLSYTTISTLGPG
Assay: Agonist activity at human CCK2 receptor expressed in COS7 cells assessed as stimulation of [3H]inositol phosphate formation
Format: functional, cell-based
Conditions: COS-7

Row | ED50 | Structure (SMILES)
1 | 5.01 nM | CCCC[C@H](NC(=O)[C@H](Cc1c[nH]c2ccccc12)NC(=O)CCCCCNC(=O)CCCCCNC(=S)Nc1ccc(O)c(NC(=O)CNC(=O)CSC(c2ccccc2)(c2ccccc2)c2ccccc2)c1)C(=O)N[C@@H](CC(=O)O)C(=O)N[C@@H](Cc1ccccc1)C(N)=O ({Acetyl(2-STrt)}-G[X1][Ahx][Ahx]W[Nle]DF-NH2)
2 | 3.1 nM | CCCC[C@H](NC(=O)[C@H](Cc1c[nH]c2ccccc12)NC(=O)CCNC(=O)CCNC(=S)Nc1ccc(O)c(NC(=O)CNC(=O)CSC(c2ccccc2)(c2ccccc2)c2ccccc2)c1)C(=O)N[C@@H](CC(=O)O)C(=O)N[C@@H](Cc1ccccc1)C(N)=O ({Acetyl(2-STrt)}-G[X1][βAla][βAla]W[Nle]DF-NH2)
3 | 84.5 nM | CCCC[C@H](NC(=O)[C@H](Cc1c[nH]c2ccccc12)NC(=S)Nc1ccc(O)c(NC(=O)CNC(=O)CSC(c2ccccc2)(c2ccccc2)c2ccccc2)c1)C(=O)N[C@@H](CC(=O)O)C(=O)N[C@@H](Cc1ccccc1)C(=O)O ({Acetyl(2-STrt)}-G[X1]W[Nle]DF-OH)

From ChEMBL document CHEMBL1154386, “Synthesis, characterization and in vitro evaluation of new oxorhenium- and oxotechnetium-CCK4 derivatives as molecular imaging agents for CCK2-receptor targeting” (Eur J Med Chem, 2010)
